Assay results reported in ChEMBL document CHEMBL4261497, “Nucleotide pyrophosphatase/phosphodiesterase 1 (NPP1) and its inhibitors” (Medchemcomm, 2017).
Values belong to the compound of their own block, whether it stands above or below them.

Assays:
[1] = target: T1, Ectonucleotide pyrophosphatase/phosphodiesterase family member 1 (Homo sapiens, UniProt P22413); test: Competitive-inhibition of recombinant human N-terminal His-tagged soluble NPP1 (Val191 to Leu591 residues) expressed in mouse NSO cells using ATP as substrate after 30 mins by capillary electrophoresis method
T1 sequence (P22413 whole entry): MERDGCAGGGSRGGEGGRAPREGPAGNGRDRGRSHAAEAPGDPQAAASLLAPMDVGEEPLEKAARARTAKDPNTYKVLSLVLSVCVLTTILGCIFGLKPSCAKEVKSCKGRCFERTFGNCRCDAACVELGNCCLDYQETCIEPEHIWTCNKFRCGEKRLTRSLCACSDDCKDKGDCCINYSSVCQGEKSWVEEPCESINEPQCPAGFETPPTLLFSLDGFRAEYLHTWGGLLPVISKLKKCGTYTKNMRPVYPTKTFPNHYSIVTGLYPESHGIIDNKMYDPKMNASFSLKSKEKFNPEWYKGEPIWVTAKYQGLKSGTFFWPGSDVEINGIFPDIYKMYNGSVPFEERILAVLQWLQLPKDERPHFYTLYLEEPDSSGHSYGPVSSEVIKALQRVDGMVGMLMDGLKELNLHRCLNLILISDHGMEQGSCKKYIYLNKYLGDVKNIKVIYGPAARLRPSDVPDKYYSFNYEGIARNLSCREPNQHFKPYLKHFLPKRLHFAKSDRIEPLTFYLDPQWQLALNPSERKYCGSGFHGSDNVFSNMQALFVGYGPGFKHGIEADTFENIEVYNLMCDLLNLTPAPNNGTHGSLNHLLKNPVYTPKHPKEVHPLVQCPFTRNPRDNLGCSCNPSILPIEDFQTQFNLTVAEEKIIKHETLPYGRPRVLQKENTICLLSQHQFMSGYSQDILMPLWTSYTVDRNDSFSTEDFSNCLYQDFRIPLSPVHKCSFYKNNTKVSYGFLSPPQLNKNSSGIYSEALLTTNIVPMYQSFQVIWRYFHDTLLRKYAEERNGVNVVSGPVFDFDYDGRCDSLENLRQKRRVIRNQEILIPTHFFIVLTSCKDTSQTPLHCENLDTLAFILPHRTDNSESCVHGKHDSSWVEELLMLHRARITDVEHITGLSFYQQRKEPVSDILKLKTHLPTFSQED

[2] = target: T1, Ectonucleotide pyrophosphatase/phosphodiesterase family member 1; test: Noncompetitive-inhibition of recombinant human NPP1 expressed in HEK293 cell membranes using p-Nph-5'-TMP as substrate pretreated for 10 mins followed by substrate addition and measured after 60 mins by capillary electrophoresis method
[3] = target: T2, Ectonucleotide pyrophosphatase/phosphodiesterase family member 1 (Rattus norvegicus, UniProt Q924C3); test: Competitive-inhibition of Wistar rat NPP1 using p-Nph-5'-TMP as substrate measured after 5 mins by UPLC method
T2 sequence (Q924C3 whole entry): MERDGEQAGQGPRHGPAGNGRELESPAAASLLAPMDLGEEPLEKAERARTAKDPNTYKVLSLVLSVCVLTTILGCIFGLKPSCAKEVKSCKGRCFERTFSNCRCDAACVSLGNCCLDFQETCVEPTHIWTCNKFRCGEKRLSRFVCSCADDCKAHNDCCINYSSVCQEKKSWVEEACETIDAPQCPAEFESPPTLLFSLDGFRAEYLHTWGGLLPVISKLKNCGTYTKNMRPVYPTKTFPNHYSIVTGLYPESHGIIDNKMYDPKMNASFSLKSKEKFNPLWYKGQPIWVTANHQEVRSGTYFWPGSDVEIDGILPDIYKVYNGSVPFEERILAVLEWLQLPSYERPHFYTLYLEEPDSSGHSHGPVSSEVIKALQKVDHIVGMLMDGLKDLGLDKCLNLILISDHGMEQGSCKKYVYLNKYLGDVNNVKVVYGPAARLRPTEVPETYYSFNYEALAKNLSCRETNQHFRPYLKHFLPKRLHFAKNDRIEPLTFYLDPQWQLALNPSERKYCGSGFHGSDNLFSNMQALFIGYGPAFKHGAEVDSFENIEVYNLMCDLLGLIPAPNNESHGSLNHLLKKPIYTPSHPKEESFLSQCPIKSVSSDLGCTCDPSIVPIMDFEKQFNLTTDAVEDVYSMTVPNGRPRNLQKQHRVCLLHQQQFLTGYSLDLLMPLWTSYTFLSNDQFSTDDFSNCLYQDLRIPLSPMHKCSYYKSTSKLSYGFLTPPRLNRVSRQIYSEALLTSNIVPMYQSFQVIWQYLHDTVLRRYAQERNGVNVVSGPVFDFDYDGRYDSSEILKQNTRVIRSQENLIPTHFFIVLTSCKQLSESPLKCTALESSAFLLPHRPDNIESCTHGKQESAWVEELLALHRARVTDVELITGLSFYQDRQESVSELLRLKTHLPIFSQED

[4] = target: T2, Ectonucleotide pyrophosphatase/phosphodiesterase family member 1; test: Inhibition of NPP1 in Wistar rat C6 cells using [gamma-32P]ATP as substrate pretreated for 30 mins followed by substrate addition and measured after 90 mins by TLC analysis; assay type: cell-based
[5] = target: T2, Ectonucleotide pyrophosphatase/phosphodiesterase family member 1; test: Mixed-inhibition of Wistar rat NPP1 using p-Nph-5'-TMP as substrate measured after 5 mins by UPLC method
[6] = target: T1, Ectonucleotide pyrophosphatase/phosphodiesterase family member 1; test: Inhibition of recombinant human NPP1 expressed in COS7 cell membranes using p-Nph-5'-TMP as substrate pretreated for 10 mins followed by substrate addition and measured after 30 mins
[7] = target: T1, Ectonucleotide pyrophosphatase/phosphodiesterase family member 1; test: Competitive-inhibition of recombinant human NPP1 expressed in HEK293 cell membranes using p-Nph-5'-TMP as substrate pretreated for 10 mins followed by substrate addition and measured after 60 mins by capillary electrophoresis method
[8] = target: T1, Ectonucleotide pyrophosphatase/phosphodiesterase family member 1; test: Uncompetitive-inhibition of recombinant human N-terminal His-tagged soluble NPP1 (Val191 to Leu591 residues) expressed in mouse NSO cells using ATP as substrate after 30 mins by capillary electrophoresis method
[9] = target: T1, Ectonucleotide pyrophosphatase/phosphodiesterase family member 1; test: Uncompetitive-inhibition of recombinant human N-terminal His-tagged soluble NPP1 (Val191 to Leu591 residues) expressed in mouse NSO cells using p-Nph-5'-TMP as substrate after 15 mins by capillary electrophoresis method
[10] = target: T1, Ectonucleotide pyrophosphatase/phosphodiesterase family member 1; test: Uncompetitive-inhibition of recombinant human N-terminal His-tagged soluble NPP1 (Val191 to Leu591 residues) expressed in mouse NSO cells using ATP as substrate by capillary electrophoresis method
[11] = target: T1, Ectonucleotide pyrophosphatase/phosphodiesterase family member 1; test: Uncompetitive-inhibition of recombinant human N-terminal His-tagged soluble NPP1 (Val191 to Leu591 residues) expressed in mouse NSO cells using p-Nph-5'-AMP as substrate after 30 mins by capillary electrophoresis method
[12] = target: T1, Ectonucleotide pyrophosphatase/phosphodiesterase family member 1; test: Inhibition of recombinant human NPP1 expressed in COS7 cell membranes using p-Nph-5'-TMP as substrate pretreated for 10 mins followed by substrate addition and measured after 30 mins by spectrophotometric method

Ki [1]: 23.7 µM
Structure (SMILES): CSc1nc(N)c2ncn([C@@H]3O[C@H](COP(=O)(O)OP(=O)(O)O)[C@@H](O)[C@H]3O)c2n1

Ki [2]: 3.42 µM
Structure (SMILES): Nc1ncnc2c1ncn2[C@@H](C=O)O[C@@H](C=O)COP(=O)(O)OP(=O)(O)O

Structure (SMILES): Nc1ncnc2c1ncn2[C@@H]1O[C@H](COP(=O)(O)CP(=O)(O)OP(=O)(O)O)[C@@H](O)[C@H]1O [DIPHOSPHOMETHYLPHOSPHONIC ACID ADENOSYL ESTER]
Ki [3]: 2.2 µM

IC50 [4]: 12 µM
Structure (SMILES): Cc1nc(/N=N/c2ccc(S(=O)(=O)O)cc2S(=O)(=O)O)c(COP(=O)(O)O)c(C=O)c1O

IC50 [4]: 72 µM
Structure (SMILES): Cc1ccc(C(=O)Nc2ccc(S(=O)(=O)O)c3cc(S(=O)(=O)O)cc(S(=O)(=O)O)c23)cc1NC(=O)c1cccc(NC(=O)Nc2cccc(C(=O)Nc3cc(C(=O)Nc4ccc(S(=O)(=O)O)c5cc(S(=O)(=O)O)cc(S(=O)(=O)O)c45)ccc3C)c2)c1 [SURAMIN]

Structure (SMILES): Nc1ncnc2c1ncn2[C@@H]1O[C@H](COP(=O)(O)CP(=O)(O)O)[C@@H](O)[C@H]1O [PHOSPHOMETHYLPHOSPHONIC ACID ADENOSYL ESTER]
Ki [5]: 9.6 µM
Ki [1]: 24.3 µM

IC50 [6]: 1.9 to 5.5 µM
Structure (SMILES): CCC(Oc1ccc(C)cc1)c1nnc(SCC(=O)Nc2nc3ccccc3s2)o1 (centres undefined)

Ki [3]: 20.5 µM
Ki [1]: 21.3 µM
Structure (SMILES): CSc1nc(N)c2ncn([C@@H]3O[C@H](COP(=O)(O)OP(=O)(O)OP(=O)(O)O)[C@@H](O)[C@H]3O)c2n1

Ki [3]: 20.5 µM
Ki [1]: 14.6 µM
Ki [7]: 2.96 µM
Structure (SMILES): Nc1ncnc2c1ncn2[C@@H]1O[C@H](COP(=O)(O)OP(=O)(O)OP(=O)(O)O)[C@@H](OC(=O)c2ccc(C(=O)c3ccccc3)cc2)[C@H]1O

Ki [3]: 9.8 µM
Ki [8]: 6.96 µM
Ki [9]: 4.09 µM
Ki [10]: 6.82 µM
Ki [11]: 5.08 µM
Structure (SMILES): Nc1ncnc2c1ncn2[C@@H](C=O)O[C@@H](C=O)COP(=O)(O)OP(=O)(O)OP(=O)(O)O

IC50 [12]: 0.36 to 2.81 µM
Structure (SMILES): COc1cc2cc(-n3cc(C)c4ccccc43)n3c4ccccc4c(C)c3c2cc1OC
